Measurements as given in patent publication EP2951180B1, “2,6,7,8 SUBSTITUTED PURINES AS HDM2 INHIBITORS” (Merck Sharp & Dohme Corp., priority 2013, dated 2014).

target: T1, HDM2 (Homo sapiens, UniProt Q00987); assay: HDM2 FRET assay (inhibition of binding of FITC labeled p53-pocket peptide to HDM2); conditions: 0.5 nM HDM2 (residues 17 to 125), 3nM peptide, two hour incubation at room temperature; read-out: FRET IC50
T1 construct: Thioredoxin (N); made in house; host or cells: E. coli strain BL21(DE3)Rosetta
T1 sequence (Q00987 17-125): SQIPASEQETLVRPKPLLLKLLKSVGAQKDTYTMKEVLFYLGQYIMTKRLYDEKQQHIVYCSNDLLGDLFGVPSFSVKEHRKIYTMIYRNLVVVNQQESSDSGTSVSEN
How it was run: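 Displacement of FITC-p53 peptide (3 nM) from His-tagged HDM2 (0.5 nM) is measured by Tb-to-fluorescein FRET in PBS, 0.01% BSA, 0.01% Tween-20. IC50 values derive from 10-point curves.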

Compound	IC50
C[C@@H]1COCCN1c1nc2nc(-c3n[nH]c(=O)o3)nc(-c3cncc(Cl)c3)c2n1C[C@H]1CC[C@H](C)CC1 [Example 16.11, 5-(6-(5-chloropyridin-3-yl)-7-(((trans)-4-methylcyclohexyl)methyl)-8-((R)-3-methylmorpholino)-7H-purin-2-yl)-1,3,4-oxadiazol-2(3H)-one]	27.7 nM
C[C@H]1CC[C@H](Cn2c(N3CCOC[C@H]3c3ccccc3)nc3nc(-c4noc(=O)[nH]4)nc(-c4ccccc4)c32)CC1 [Example 16.12, 3-(7-(((trans)-4-methylcyclohexyl)methyl)-6-phenyl-8-((R)-3-phenylmorpholino)-7H-purin-2-yl)-1,2,4-oxadiazol-5(4H)-one]	10.1 nM
CC(C)c1ccnc(-c2nc3nc(C(=O)O)nc(-c4ccc(F)cc4)c3n2C[C@H]2CC[C@H](C)CC2)c1 [Example 16.13, 6-(4-fluorophenyl)-7-[(trans-4-methylcyclohexyl)methyl]-8-[4-(1-methylethyl)pyridin-2-yl]-7H-purine-2-carboxylic acid]	401 nM
Cc1cccc(-c2nc(C(=O)O)nc3nc(-c4cc(C(C)C)ccn4)n(C[C@H]4CC[C@H](C)CC4)c23)c1 [Example 16.14, 7-[(trans-4-methylcyclohexyl)methyl]-8-[4-(1-methylethyl)pyridin-2-yl]-6-(3-methylphenyl)-7H-purine-2-carboxylic acid]	35.5 nM
Cc1cccc(-c2nc(-c3noc(=O)[nH]3)nc3nc(-c4cc(C(C)C)ccn4)n(C[C@H]4CC[C@H](C)CC4)c23)c1 [Example 16.15, 3-{7-[(trans-4-methylcyclohexyl)methyl]-8-[4-(1-methylethyl)pyridin-2-yl]-6-(3-methylphenyl)-7H-purin-2-yl}-1,2,4-oxadiazol-5(4H)-one]	30 nM
CC(C)c1ccnc(-c2nc3nc(-c4noc(=O)[nH]4)nc(-c4cccc(Cl)c4)c3n2C[C@H]2CC[C@H](C)CC2)c1 [Example 16.16, 3-{6-(3-chlorophenyl)-7-[(trans-4-methylcyclohexyl)methyl]-8-[4-(1-methylethyl)pyridin-2-yl]-7H-purin-2-yl}-1,2,4-oxadiazol-5(4H)-one]	11.4 nM
Cc1cccc(-c2nc(-c3noc(=O)[nH]3)nc3nc(N4CCOC[C@H]4c4ccccc4)n(C[C@H]4CC[C@H](C)CC4)c23)c1 [Example 16.17, 3-{7-[(trans-4-methylcyclohexyl)methyl]-6-(3-methylphenyl)-8-[(3R)-3-phenylmorpholin-4-yl]-7H-purin-2-yl}-1,2,4-oxadiazol-5(4H)-one]	3.96 nM
C[C@H]1CC[C@H](Cn2c(N3CCOC[C@H]3c3ccccc3)nc3nc(-c4noc(=O)[nH]4)nc(-c4cccc(Cl)c4)c32)CC1 [Example 16.18, 3-{6-(3-chlorophenyl)-7-[(trans-4-methylcyclohexyl)methyl]-8-[(3R)-3-phenylmorpholin-4-yl]-7H-purin-2-yl}-1,2,4-oxadiazol-5(4H)-one]	1.27 nM
C[C@H]1CC[C@H](Cn2c(N3CCOC[C@H]3c3ccccc3)nc3nc(-c4noc(=O)[nH]4)nc(-c4cc(Cl)cc(Cl)c4)c32)CC1 [Example 16.19, 3-{6-(3,5-dichlorophenyl)-7-[(trans-4-methylcyclohexyl)methyl]-8-[(3R)-3-phenylmorpholin-4-yl]-7H-purin-2-yl}-1,2,4-oxadiazol-5(4H)-one]	0.995 nM
C[C@H]1CC[C@H](Cn2c(N3CCOC[C@H]3c3ccccc3)nc3nc(-c4noc(=O)[nH]4)nc(-c4cc(F)cc(Cl)c4)c32)CC1 [Example 16.20, 3-{6-(3-chloro-5-fluorophenyl)-7-[(trans-4-methylcyclohexyl)methyl]-8-[(3R)-3-phenylmorpholin-4-yl]-7H-purin-2-yl}-1,2,4-oxadiazol-5(4H)-one]	1.21 nM
C[C@H]1CC[C@H](Cn2c(N3CCOC[C@H]3c3ccccc3)nc3nc(-c4n[nH]c(=O)o4)nc(-c4cccc(Cl)c4)c32)CC1 [Example 16.21, 5-{6-(3-chlorophenyl)-7-[(trans-4-methylcyclohexyl)methyl]-8-[(3R)-3-phenylmorpholin-4-yl]-7H -purin-2-yl}-1,3,4-oxadiazol-2(3H)-one]	2.25 nM
C[C@H]1CC[C@H](Cn2c(N3CCOC[C@H]3c3ccccc3)nc3nc(C(=O)O)nc(-c4cccc(Cl)c4)c32)CC1 [Example 16.22, 6-(3-chlorophenyl)-7-[(trans-4-methylcyclohexyl)methyl]-8-[(3R)-3-phenylmorpholin-4-yl]-7H-purine-2-carboxylic acid]	0.68 nM
C[C@H]1CC[C@H](Cn2c(N3CCOC[C@H]3c3ccccc3)nc3nc(-c4noc(=O)[nH]4)nc(-c4cccc(Cl)c4F)c32)CC1 [Example 16.23, 3-{6-(3-chloro-2-fluorophenyl)-7-[(trans-4-methylcyclohexyl)methyl]-8-[(3R)-3-phenylmorpholin-4-yl]-7H-purin-2-yl}-1,2,4-oxadiazol-5(4H)-one]	1.44 nM
C[C@H]1CC[C@H](Cn2c(N3CCOC[C@H]3c3ccccc3)nc3nc(-c4noc(=O)[nH]4)nc(-c4ccc(F)c(Cl)c4)c32)CC1 [Example 16.24, 3-{6-(3-chloro-4-fluorophenyl)-7-[(trans-4-methylcyclohexyl)methyl]-8-[(3R)-3-phenylmorpholin-4-yl]-7H-purin-2-yl}-1,2,4-oxadiazol-5(4H)-one]	5.62 nM
C[C@H]1CC[C@H](Cn2c(N3CCOC[C@H]3c3ccccc3)nc3nc(-c4noc(=O)[nH]4)nc(-c4cc(Cl)ccc4F)c32)CC1 [Example 16.25, 3-{6-(5-chloro-2-fluorophenyl)-7-[(trans-4-methylcyclohexyl)methyl]-8-[(3R)-3-phenylmorpholin-4-yl]-7H-purin-2-yl} -1,2,4-oxadiazol-5(4H)-one]	1.63 nM
C[C@H]1CC[C@H](Cn2c(N3CCOC[C@H]3c3ccccc3)nc3nc(-c4noc(=O)[nH]4)nc(-c4cncc(Cl)c4)c32)CC1 [Example 16.26, 3-{6-(5-chloropyridin-3-yl)-7-[(trans-4-methylcyclohexyl)methyl]-8-[(3R)-3-phenylmorpholin-4-yl]-7H-purin-2-yl}-1,2,4-oxadiazol-5(4H)-one]	0.517 nM
Cc1cccc(-c2nc(-c3noc(=O)[nH]3)nc3nc(N4CCOCC4)n(C[C@H]4CC[C@H](C)CC4)c23)c1 [Example 16.27, 3-{7-[(trans-4-methylcyclohexyl)methyl]-6-(3-methylphenyl)-8-morpholin-4-yl-7H-purin-2-yl}-1,2,4-oxadiazol-5(4H)-one]	334 nM
Cc1cccc(-c2nc(-c3noc(=O)[nH]3)nc3nc(N4CCOC[C@H]4C)n(C[C@H]4CC[C@H](C)CC4)c23)c1 [Example 16.28, 3-{7-[(trans-4-methylcyclohexyl)methyl]-8-[(3R)-3-methylmorpholin-4-yl]-6-(3-methylphenyl)-7H-purin-2-yl}-1,2,4-oxadiazol-5(4H)-one]	38.7 nM
CC1(C)COCCN1c1nc2nc(-c3noc(=O)[nH]3)nc(-c3cccc(Cl)c3)c2n1C[C@H]1CC[C@H](C)CC1 [Example 16.29, 3-{6-(3-chlorophenyl)-8-(3,3-dimethylmorpholin-4-yl)-7-[(trans-4-methylcyclohexyl)methyl]-7H-purin-2-yl}-1,2,4-oxadiazol-5(4H)-one]	5.2 nM
CCc1cccc(-c2nc(-c3noc(=O)[nH]3)nc3nc(N4CCOC[C@H]4c4ccccc4)n(C[C@H]4CC[C@H](C)CC4)c23)c1 [Example 16.30, 3-{6-(3-ethylphenyl)-7-[(trans-4-methylcyclohexyl)methyl]-8-[(3R)-3-phenylmorpholin-4-yl]-7H-purin-2-yl}-1,2,4-oxadiazol-5(4H)-one]	2.77 nM
C[C@H]1CC[C@H](Cn2c(N3CCOC[C@H]3c3ccccc3)nc3nc(-c4noc(=O)[nH]4)nc(-c4cccc(C(F)F)c4)c32)CC1 [Example 16.31, 3-{6-[3-(difluoromethyl)phenyl]-7-[(trans-4-methylcyclohexyl)methyl]-8-[(3R)-3-phenylmorpholin-4-yl]-7H-purin-2-yl}-1,2,4-oxadiazol-5(4H)-one]	7.11 nM
Cc1cccc(-c2nc(-c3n[nH]c(=O)o3)nc3nc(N4CCOC[C@H]4C)n(C[C@H]4CC[C@H](C)CC4)c23)c1 [Example 16.32, 5-{7-[(trans-4-methylcyclohexyl)methyl]-8-[(3R)-3-methylmorpholin-4-yl]-6-(3-methylphenyl)-7H-purin-2-yl} -1,3,4-oxadiazol-2(3H)-one]	60.5 nM
C[C@H]1CC[C@H](Cn2c(N3CCOCC3)nc3nc(-c4n[nH]c(=O)o4)nc(-c4cccc(Cl)c4)c32)CC1 [Example 16.33, 5-{6-(3-chlorophenyl)-7-[(trans-4-methylcyclohexyl)methyl]-8-morpholin-4-yl-7H-purin-2-yl}-1,3,4-oxadiazol-2(3H)-one]	163 nM
Cc1cccc(-c2nc(-c3noc(=O)[nH]3)nc3nc(N4CCOC[C@@H]4C)n(C[C@H]4CC[C@H](C)CC4)c23)c1 [Example 16.34, 3-{7-[(trans-4-methylcyclohexyl)methyl]-8-[(3S)-3-methylmorpholin-4-yl]-6-(3-methylphenyl)-7H-purin-2-yl}-1,2,4-oxadiazol-5(4H)-one]	503 nM
C[C@H]1CC[C@H](Cn2c(N3CCOC[C@H]3c3ccccc3)nc3nc(-c4n[nH]c(=O)o4)nc(-c4cncc(Cl)c4)c32)CC1 [Example 16.35, 5-{6-(5-chloropyridin-3-yl)-7-[(trans-4-methylcyclohexyl)methyl]-8-[(3R)-3-phenylmorpholin-4-yl]-7H-purin-2-yl} -1,3,4-oxadiazol-2(3H)-one]	0.824 nM
CC(C)(O)c1ccnc(-c2nc3nc(-c4noc(=O)[nH]4)nc(-c4cccc(Cl)c4)c3n2C[C@H]2CC[C@H](C)CC2)c1 [Example 16.36, 3-{6-(3-chlorophenyl)-8-[4-(1-hydroxy-1-methylethyl)pyridin-2-yl]-7-[(trans-4-methylcyclohexyl)methyl]-7H-purin-2-yl}-1,2,4-oxadiazol-5(4H)-one]	26.2 nM
